US12139475B2, “2-oxindole compounds” (CHEMOCENTRYX, INC., priority 2016, dated 2024)

Target: T1, CCR(9) (Homo sapiens, UniProt P51686)
T1 construct: MOLT-4 cells were collected by centrifugation at 400×g at room temperature, then suspended at 50 million/ml in human serum; host or cells: MOLT-4
T1 sequence (P51686 1-369): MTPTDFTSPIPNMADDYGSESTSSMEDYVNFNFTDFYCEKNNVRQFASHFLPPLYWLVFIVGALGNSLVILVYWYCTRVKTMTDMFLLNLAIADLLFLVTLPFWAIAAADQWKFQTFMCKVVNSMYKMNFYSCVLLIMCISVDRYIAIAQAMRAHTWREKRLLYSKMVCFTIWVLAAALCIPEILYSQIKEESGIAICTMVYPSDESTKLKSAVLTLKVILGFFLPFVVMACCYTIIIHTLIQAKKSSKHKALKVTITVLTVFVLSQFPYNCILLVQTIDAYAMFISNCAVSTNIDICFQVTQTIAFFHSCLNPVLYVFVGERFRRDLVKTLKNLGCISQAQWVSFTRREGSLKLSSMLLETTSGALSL
Experiment: Serum chemotaxis assay (MOLT-4 cells, TECK-induced migration, ChemoTX)
Type: cell-based
Conditions: MOLT-4 cells in human serum, migration to recombinant human TECK, 90 minutes at 37° C.
Description: MOLT-4 cells were obtained from the American Type Culture Collection (Manassas, VA) and cultured in RPMI tissue culture medium supplemented with 10% fetal calf serum (FCS) in a humidified 5% CO2 incubator at 37° C. Recombinant human chemokine proteins TECK was obtained from R&D Systems (Minneapolis, MN). ChemoTX™ chemotaxis microchambers were purchased from Neuro Probe (Gaithersburg, MD). CyQUANT™ cell proliferation kits were purchased from Molecular Probes (Eugene, Oregon). Calcium indicator dye Fluo-4 AM was purchased from Molecular Devices (Mountain View, CA).
A serum chemotaxis assay was used to determine the efficacy of potential receptor antagonists at blocking the migration mediated through chemokine receptors, such as CCR(9). This assay was performed using the ChemoTX® microchamber system with a 5-μm pore-sized polycarbonate membrane. MOLT-4 cells were collected by centrifugation at 400×g at room temperature, then suspended at 50 million/ml in human serum, containing 50 mM HEPES (final pH of 7.2). The compound being tested or an equivalent volume of its solvent (DMSO) was then added to the cell/serum mixture at a final DMSO concentration of 0.125% (v/v), and this mixture was then incubated together at 37° C. for one hour. Separately, recombinant human TECK was diluted with chemotaxis buffer (HBSS+0.1% BSA), generally spanning a range from 0.1 nM to 500 nM, after which 29 μl of diluted chemokine was placed in the lower wells of the ChemoTX® plate. The 5-μm (pore size) polycarbonate membrane was placed onto the plate, and 20 μL of the cell/compound mixture was transferred onto each well of the membrane. The plates were incubated at 37° C. for 90 minutes, after which the polycarbonate membranes were removed and 5 μl of the DNA-intercalating agent CyQUANT (Invitrogen, Carlsbad, CA) was added to the lower wells. The amount of fluorescence, corresponding to the number of migrated cells, was measured using a Spectrafluor Plus plate reader (TECAN, San Jose, CA).
The A2 values were calculated from the following equation, comparing the efficacy of the test compound with that of the DMSO-only control at equi-active chemokine levels: Log(A2)=log[drug(M)]−log[(A′/A)−1] where A reflects the potency of the agonist in the absence of antagonist and A′ reflects the potency of the agonist in the presence of antagonist at a given concentration of drug ([drug(M)]). In Vivo Efficacy Models for Human IBD

Structure (SMILES)	Chemotaxis A2
CC1(C)CCc2cc(C3(C)C(=O)N(c4cccc(C(=O)O)c4)c4cc(Cl)ccc43)ccc2O1 (stereo not shown)	++ (500 nM > A2 ≥ 100 nM)
Cc1ccc2c(c1)C(C)(c1ccc(C(C)(C)C)cc1)C(=O)N2c1cccc(C(=O)O)c1 (stereo not shown)	++ (500 nM > A2 ≥ 100 nM)
Cc1ccc(N2C(=O)[C@@](C)(c3ccc(C(C)(C)C)cc3)c3cc(Cl)ccc32)cc1C(=O)O	+++ (100 nM > A2)
Cc1ccc(N2C(=O)[C@@](C)(c3ccc4c(c3)CCC(C)(C)O4)c3cc(Cl)ccc32)cc1C(=O)O	+++ (100 nM > A2)
CC1(C)CCc2cc([C@]3(C)C(=O)N(c4ccc(C(=O)O)cc4)c4ccc(Cl)cc43)ccc2O1	+++ (100 nM > A2)
CC1(C)CCc2cc([C@]3(C)C(=O)N(c4ccc(C(=O)O)c(Cl)c4)c4ccc(Cl)cc43)ccc2O1	+++ (100 nM > A2)
CC1(C)CCc2cc([C@]3(C)C(=O)N(c4cccc(CC(=O)O)c4)c4ccc(Cl)cc43)ccc2O1	+++ (100 nM > A2)
CC1(C)CCc2cc([C@]3(C)C(=O)N(c4ccc(C(=O)O)c(F)c4)c4ccc(Cl)cc43)ccc2O1	+++ (100 nM > A2)
Cc1cc(N2C(=O)[C@@](C)(c3ccc4c(c3)CCC(C)(C)O4)c3cc(Cl)ccc32)ccc1C(=O)O	+++ (100 nM > A2)
CCc1ccc(N2C(=O)[C@@](C)(c3ccc4c(c3)CCC(C)(C)O4)c3cc(Cl)ccc32)cc1C(=O)O	+++ (100 nM > A2)
COc1cc(N2C(=O)[C@@](C)(c3ccc4c(c3)CCC(C)(C)O4)c3cc(Cl)ccc32)ccc1C(=O)O	+++ (100 nM > A2)
CC1(C)CCc2cc([C@]3(C)C(=O)N(c4cccc(CCC(=O)O)c4)c4ccc(Cl)cc43)ccc2O1	+++ (100 nM > A2)
CC(C(=O)O)c1cccc(N2C(=O)[C@@](C)(c3ccc4c(c3)CCC(C)(C)O4)c3cc(Cl)ccc32)c1 (stereo partly shown)	+++ (100 nM > A2)
CC1(C)CCc2cc([C@]3(C)C(=O)N(Cc4ccccc4C(=O)O)c4ccc(Cl)cc43)ccc2O1	+++ (100 nM > A2)
CC1(C)CCc2cc([C@]3(C)C(=O)N(c4cccc(C(C)(C)C(=O)O)c4)c4ccc(Cl)cc43)ccc2O1	+++ (100 nM > A2)
COc1ccc(CN2C(=O)[C@@](C)(c3ccc4c(c3)CCC(C)(C)O4)c3cc(Cl)ccc32)cc1C(=O)O	+++ (100 nM > A2)

Structure (SMILES)	Chemotaxis A2
CC(c1cccc(C(=O)O)c1)N1C(=O)[C@@](C)(c2ccc3c(c2)CCC(C)(C)O3)c2cc(Cl)ccc21 (stereo partly shown)	+++ (100 nM > A2)
Cc1ccc(CN2C(=O)[C@@](C)(c3ccc4c(c3)CCC(C)(C)O4)c3cc(Cl)ccc32)c(C(=O)O)c1	+++ (100 nM > A2)
COc1ccc(CN2C(=O)[C@@](C)(c3ccc4c(c3)CCC(C)(C)O4)c3cc(Cl)ccc32)c(C(=O)O)c1	+++ (100 nM > A2)
CC1(C)CCc2cc([C@]3(C)C(=O)N(c4ccc(OCC(=O)O)cc4)c4ccc(Cl)cc43)ccc2O1	+++ (100 nM > A2)
CC1(C)CCc2cc([C@]3(C)C(=O)N(Cc4ccc(Cl)cc4C(=O)O)c4ccc(Cl)cc43)ccc2O1	+++ (100 nM > A2)
Cc1cc(CN2C(=O)[C@@](C)(c3ccc4c(c3)CCC(C)(C)O4)c3cc(Cl)ccc32)ccc1C(=O)O	+++ (100 nM > A2)
Cc1ccc(C(=O)O)c(CN2C(=O)[C@@](C)(c3ccc4c(c3)CCC(C)(C)O4)c3cc(Cl)ccc32)c1	+++ (100 nM > A2)
Cc1cccc(CN2C(=O)[C@@](C)(c3ccc4c(c3)CCC(C)(C)O4)c3cc(Cl)ccc32)c1C(=O)O	+++ (100 nM > A2)
COc1cc(C(=O)O)cc(N2C(=O)[C@@](C)(c3ccc4c(c3)CCC(C)(C)O4)c3cc(Cl)ccc32)c1	+++ (100 nM > A2)
Cc1c(CN2C(=O)[C@@](C)(c3ccc4c(c3)CCC(C)(C)O4)c3cc(Cl)ccc32)cccc1C(=O)O	+++ (100 nM > A2)
Cc1cccc(C(=O)O)c1CN1C(=O)[C@@](C)(c2ccc3c(c2)CCC(C)(C)O3)c2cc(Cl)ccc21	+++ (100 nM > A2)
CC1(C)CCc2cc([C@]3(C)C(=O)N(c4ccccc4CC(=O)O)c4ccc(Cl)cc43)ccc2O1	+++ (100 nM > A2)
CC1(C)CCc2cc([C@]3(C)C(=O)N(Cc4cc(Cl)ccc4C(=O)O)c4ccc(Cl)cc43)ccc2O1	+++ (100 nM > A2)
CC1(C)CCc2cc([C@]3(C)C(=O)N(Cc4cccc(Cl)c4C(=O)O)c4ccc(Cl)cc43)ccc2O1	+++ (100 nM > A2)
COc1cccc(C(=O)O)c1CN1C(=O)[C@@](C)(c2ccc3c(c2)CCC(C)(C)O3)c2cc(Cl)ccc21	++ (500 nM > A2 ≥ 100 nM)
COc1cccc(CN2C(=O)[C@@](C)(c3ccc4c(c3)CCC(C)(C)O4)c3cc(Cl)ccc32)c1C(=O)O	+++ (100 nM > A2)

More lines, now with the values ahead:

Chemotaxis A2	Structure (SMILES)
+++ (100 nM > A2)	CC(C)(C)c1ccc(C2(C)C(=O)N(c3cccc(C(=O)O)c3)c3ccc(Cl)cc32)cc1F (stereo not shown)
++ (500 nM > A2 ≥ 100 nM)	Cc1ccc2c(c1)C(C)(c1ccc(C(C)(C)C)cc1)C(=O)N2c1ccc(C(=O)O)cc1 (stereo not shown)
++ (500 nM > A2 ≥ 100 nM)	Cc1cc(C(C)(C)C)ccc1C1(C)C(=O)N(c2ccc(C(=O)O)cc2)c2ccc(Cl)cc21 (stereo not shown)
+++ (100 nM > A2)	CC(C)(C)c1ccc([C@]2(C)C(=O)N(c3ccc(F)c(C(=O)O)c3)c3ccc(Cl)cc32)cc1
+++ (100 nM > A2)	CC1(C)CCc2cc([C@]3(C)C(=O)N(c4ccc(F)c(C(=O)O)c4)c4ccc(Cl)cc43)ccc2O1
+++ (100 nM > A2)	CC1(C)CCc2cc([C@]3(C)C(=O)N(c4ccc(Cl)c(C(=O)O)c4)c4ccc(Cl)cc43)ccc2O1
+++ (100 nM > A2)	Cc1ccc2c(c1)[C@](C)(c1ccc3c(c1)CCC(C)(C)O3)C(=O)N2c1cccc(C(=O)O)c1
+++ (100 nM > A2)	Cc1ccc2c(c1)[C@](C)(c1ccc3c(c1)CCC(C)(C)O3)C(=O)N2c1ccc(C(=O)O)cc1
+++ (100 nM > A2)	CC1(C)CCc2cc([C@]3(C)C(=O)N(c4ccc(OC(F)(F)F)c(C(=O)O)c4)c4ccc(Cl)cc43)ccc2O1
+++ (100 nM > A2)	CC1(C)CCc2cc([C@]3(C)C(=O)N(c4ccc(CCC(=O)O)cc4)c4ccc(Cl)cc43)ccc2O1
+++ (100 nM > A2)	CC1(C)CCc2cc([C@]3(C)C(=O)N(Cc4cccc(C(=O)O)c4)c4ccc(Cl)cc43)ccc2O1
+++ (100 nM > A2)	CC1(C)CCc2cc([C@]3(C)C(=O)N(Cc4ccc(F)c(C(=O)O)c4)c4ccc(Cl)cc43)ccc2O1
+++ (100 nM > A2)	Cc1ccc(CN2C(=O)[C@@](C)(c3ccc4c(c3)CCC(C)(C)O4)c3cc(Cl)ccc32)cc1C(=O)O
+++ (100 nM > A2)	CC1(C)CCc2cc([C@]3(C)C(=O)N(c4cccc(OCC(=O)O)c4)c4ccc(Cl)cc43)ccc2O1
+++ (100 nM > A2)	CC1(C)CCc2cc([C@]3(C)C(=O)N(Cc4ccc(F)cc4C(=O)O)c4ccc(Cl)cc43)ccc2O1
+++ (100 nM > A2)	CC1(C)CCc2cc([C@]3(C)C(=O)N(c4ccc(CCCC(=O)O)cc4)c4ccc(Cl)cc43)ccc2O1
+++ (100 nM > A2)	CCOc1ccc(N2C(=O)[C@@](C)(c3ccc4c(c3)CCC(C)(C)O4)c3cc(Cl)ccc32)cc1C(=O)O
+++ (100 nM > A2)	CC(C)Oc1ccc(N2C(=O)[C@@](C)(c3ccc4c(c3)CCC(C)(C)O4)c3cc(Cl)ccc32)cc1C(=O)O
+++ (100 nM > A2)	Cc1cc(C(=O)O)cc(N2C(=O)[C@@](C)(c3ccc4c(c3)CCC(C)(C)O4)c3cc(Cl)ccc32)c1
+++ (100 nM > A2)	CC1(C)CCc2cc([C@]3(C)C(=O)N(c4ccc(C(F)(F)F)c(C(=O)O)c4)c4ccc(Cl)cc43)ccc2O1
+++ (100 nM > A2)	CC(C)COc1ccc(N2C(=O)[C@@](C)(c3ccc4c(c3)CCC(C)(C)O4)c3cc(Cl)ccc32)cc1C(=O)O
+++ (100 nM > A2)	CC1(C)CCc2cc([C@]3(C)C(=O)N(c4cc(Cl)cc(C(=O)O)c4)c4ccc(Cl)cc43)ccc2O1
+++ (100 nM > A2)	CC1(C)CCc2cc([C@]3(C)C(=O)N(c4cc(F)cc(C(=O)O)c4)c4ccc(Cl)cc43)ccc2O1
